Reference: patent US20090062251A1, “Novel Compounds 002” (ASTRAZENECA AB, priority 2007, published 2009)

Molecular target: T1, Human CB1 receptor (hCB1) (Homo sapiens, UniProt P21554)
T1 construct: purchased Receptor Biology
Test: hCB1 GTPγS binding
Format: biochemical
Conditions: for Emax / hCB1 EMax: maximal stimulated binding determined with 10 μM Win 55,212-2; for EC50: hCB1 membranes, GTPγ35S, 10-point dose-response
Method: hCB1 and hCB2 GTPγS Binding
Human CB1 receptor from Receptor Biology (hCB1) or human CB2 receptor membranes (BioSignal) are thawed at 37° C., passed 3 times through a 25-gauge blunt-end needle and diluted in the GTPγS binding buffer (50 mM Hepes, 20 mM NaOH, 100 mM NaCl, 1 mM EDTA, 5 mM MgCl2, pH 7.4, 0.1% BSA). […] The basal and maximal stimulated binding is determined in absence and presence of 1 μM (hCB2) or 10 μM (hCB1) Win 55, 212-2 respectively. The membranes are pre-incubated for 5 minutes with 56.25 μM (hCB2) or 112.5 μM (hCB1) GDP prior to distribution in plates (15 μM (hCB2) or 30 μM (hCB1) GDP final). The plates are vortexed and incubated for 60 minutes at room temperature, filtered on Unifilters GF/B (presoaked in water) with the Tomtec or Packard harvester using 3 ml of wash buffer (50 mM Tris, 5 mM MgCl2, 50 mM NaCl, pH 7.0). The filters are dried for 1 hour at 55° C. The radioactivity (cpm) is counted in a TopCount (Packard) after adding 65 μl/well of MS-20 scintillation liquid. Antagonist reversal studies are done in the same way except that (a) an agonist dose-response curve is done in the presence of a constant concentration of antagonist, or (b) an antagonist dose-response curve is done in the presence of a constant concentration of agonist.

T1 sequence (P21554 whole entry): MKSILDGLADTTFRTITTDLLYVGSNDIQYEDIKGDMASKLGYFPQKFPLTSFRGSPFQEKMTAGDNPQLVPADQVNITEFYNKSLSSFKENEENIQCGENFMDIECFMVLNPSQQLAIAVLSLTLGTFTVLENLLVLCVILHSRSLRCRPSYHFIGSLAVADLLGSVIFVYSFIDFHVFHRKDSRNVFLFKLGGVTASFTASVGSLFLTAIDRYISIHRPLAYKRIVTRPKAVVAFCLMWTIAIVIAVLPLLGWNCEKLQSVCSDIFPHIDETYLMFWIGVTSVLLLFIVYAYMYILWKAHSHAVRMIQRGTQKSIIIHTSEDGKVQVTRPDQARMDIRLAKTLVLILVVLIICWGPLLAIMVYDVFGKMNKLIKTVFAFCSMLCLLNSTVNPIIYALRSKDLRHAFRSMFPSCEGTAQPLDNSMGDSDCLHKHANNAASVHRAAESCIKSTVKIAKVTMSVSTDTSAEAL

SMILES	Emax [%]	hCB1 EMax [%]	EC50 [nM]
CN(CC(=O)NC1CC1)C(=O)c1ccc2c(c1)c1c(n2C)CCC(C2CCOCC2)C1 (centres unmarked) [N-(cyclopropylcarbamoylmethyl)-N,9-dimethyl-6-(oxan-4-yl)-5,6,7,8-tetrahydrocarbazole-3-carboxamide]	121	121	–
CCN(CC(=O)NC1CCOCC1)C(=O)c1ccc2c(c1)c1c(n2C)CCC(C2CCOCC2)C1 (centres unmarked) [N-ethyl-9-methyl-6-(oxan-4-yl)-N-(oxan-4-ylcarbamoylmethyl)-5,6,7,8-tetrahydrocarbazole-3-carboxamide]	> 88	–	> 1110
CCN(CCCC(=O)NCCO)C(=O)c1ccc2c(c1)c1c(n2C)CC[C@@H](C2CCOCC2)C1 [(R)—N-Ethyl-N-(4-(2-hydroxyethylamino)-4-oxobutyl)-9-methyl-3-(tetrahydro-2H-pyran-4-yl)-2,3,4,9-tetrahydro-1H-carbazole-6-carboxamide]	113	–	31
Cn1c2c(c3cc(C(=O)N4CC[C@H](C(=O)NC5CC5)C4)ccc31)CC(C1CCOCC1)CC2 (stereo partly drawn) [(3S)—N-cyclopropyl-1-[9-methyl-6-(oxan-4-yl)5,6,7,8-tetrahydrocarbazole-3-carbonyl]pyrrolidine-3-carboxamide]	134	–	–
CCNC(=O)CN(CC)C(=O)c1ccc2c(c1)c1c(n2CC(=O)NC)CCC(C2CCOCC2)C1 (centres unmarked) [N-ethyl-N-(ethylcarbamoylmethyl)-9-(methylcarbamoylmethyl)-6-(oxan-4-yl)-5,6,7,8-tetrahydrocarbazole-3-carboxamide]	> 9	–	> 30000
CN(CCCC(=O)NCC#N)C(=O)c1ccc2c(c1)c1c(n2C)CC[C@@H](C2CCOCC2)C1 [(R)—N-(4-(Cyanomethylamino)-4-oxobutyl)-N,9-dimethyl-3-(tetrahydro-2H-pyran-4-yl)-2,3,4,9-tetrahydro-1H-carbazole-6-carboxamide]	110	–	71
CCNC(=O)CN(CC)C(=O)c1ccc2c(c1)c1c(n2CC(C)(C)O)CCC(C2CCOCC2)C1 (centres unmarked) [N-ethyl-N-(ethylcarbamoylmethyl)-9-(2-hydroxy-2-methyl-propyl)-6-(oxan-4-yl)-5,6,7,8-tetrahydrocarbazole-3-carboxamide]	> 34	–	> 30000
CCN(CC(=O)NCCO)C(=O)c1ccc2c(c1)c1c(n2S(=O)(=O)CC)CCC(C2CCOCC2)C1 (centres unmarked) [N-ethyl-9-ethylsulfonyl-N-(2-hydroxyethylcarbamoylmethyl)-6-(oxan-4-yl)-5,6,7,8-tetrahydrocarbazole-3-carboxamide]	111	111	–
Cn1c2c(c3cc(C(=O)N4CC[C@H](NC(=O)C5CC5)C4)ccc31)CC(C1CCOCC1)CC2 (stereo partly drawn) [N-[(3S)-1-[9-methyl-6-(oxan-4-yl)5,6,7,8-tetrahydrocarbazole-3-carbonyl]pyrrolidin-3-yl]cyclopropanecarboxamide]	116	–	1150
CCS(=O)(=O)n1c2c(c3cc(C(=O)N4CCC[C@@H](O)C4)ccc31)CC(C1CCOCC1)CC2 (stereo partly drawn) [[9-ethylsulfonyl-6-(oxan-4-yl)-5,6,7,8-tetrahydrocarbazol-3-yl]-[(3R)-3-hydroxy-1-piperidyl]methanone]	104	–	1760
CCS(=O)(=O)n1c2c(c3cc(C(=O)N4CCC[C@@H]4C(=O)NCCF)ccc31)CC(C1CCOCC1)CC2 (stereo partly drawn) [(2R)-1-[9-ethylsulfonyl-6-(oxan-4-yl)5,6,7,8-tetrahydrocarbazole-3-carbonyl]-N-(2-fluoroethyl)pyrrolidine-2-carboxamide]	> 107	–	1700
COCCNC(=O)CCCN(C)C(=O)c1ccc2c(c1)c1c(n2C)CC[C@@H](C2CCOCC2)C1 [(R)—N-(4-(2-Methoxyethylamino)-4-oxobutyl)-N,9-dimethyl-3-(tetrahydro-2H-pyran-4-yl)-2,3,4,9-tetrahydro-1H-carbazole-6-carboxamide]	93	–	1210
CN(C(=O)c1ccc2c(c1)c1c(n2C)CC[C@@H](C2CCOCC2)C1)[C@H](CO)CCC(=O)NCC(F)F [(R)—N-((S)-5-(2,2-Difluoroethylamino)-1-hydroxy-5-oxopentan-2-yl)-N,9-dimethyl-3-(tetrahydro-2H-pyran-4-yl)-2,3,4,9-tetrahydro-1H-carbazole-6-carboxamide]	120	–	107
CONC(=O)CCCN(C)C(=O)c1ccc2c(c1)c1c(n2C)CC[C@@H](C2CCOCC2)C1 [(R)—N-(4-(Methoxyamino)-4-oxobutyl)-N,9-dimethyl-3-(tetrahydro-2H-pyran-4-yl)-2,3,4,9-tetrahydro-1H-carbazole-6-carboxamide]	104	–	291
CCN(CC(=O)NCCF)C(=O)c1ccc2c(c1)c1c(n2C)CCC(C2CCOCC2)C1 (centres unmarked) [N-ethyl-N-(2-fluoroethylcarbamoylmethyl)-9-methyl-6-(oxan-4-yl)-5,6,7,8-tetrahydrocarbazole-3-carboxamide]	108	–	–
CN(CCCC(=O)NCCF)C(=O)c1ccc2c(c1)c1c(n2C)CCC(C2CCOCC2)C1 (centres unmarked) [N-[3-(2-fluoroethylcarbamoyl)propyl]-N,9-dimethyl-6-(oxan-4-yl)-5,6,7,8-tetrahydrocarbazole-3-carboxamide]	121	–	–
CC(C)NC(=O)CC[C@@H](CO)N(C)C(=O)c1ccc2c(c1)c1c(n2C)CC[C@@H](C2CCOCC2)C1 [(R)—N-((S)-1-Hydroxy-5-(isopropylamino)-5-oxopentan-2-yl)-N,9-dimethyl-3-(tetrahydro-2H-pyran-4-yl)-2,3,4,9-tetrahydro-1H-carbazole-6-carboxamide]	129	–	133
CNC(=O)CC[C@@H](CO)N(C)C(=O)c1ccc2c(c1)c1c(n2C)CC[C@@H](C2CCOCC2)C1 [(R)—N-((S)-1-Hydroxy-5-(methylamino)-5-oxopentan-2-yl)-N,9-dimethyl-3-(tetrahydro-2H-pyran-4-yl)-2,3,4,9-tetrahydro-1H-carbazole-6-carboxamide]	124	–	101
Cn1c2c(c3cc(C(=O)N4CCC[C@H](C(=O)NC5CC5)C4)ccc31)CC(C1CCOCC1)CC2 (stereo partly drawn) [(3S)—N-cyclopropyl-1-[9-methyl-6-(oxan-4-yl)5,6,7,8-tetrahydrocarbazole-3-carbonyl]piperidine-3-carboxamide]	118	–	–
CCS(=O)(=O)n1c2c(c3cc(C(=O)N4CC[C@@H](O)C4)ccc31)CC(C1CCOCC1)CC2 (stereo partly drawn) [[9-ethylsulfonyl-6-(oxan-4-yl)-5,6,7,8-tetrahydrocarbazol-3-yl]-[(3R)-3-hydroxypyrrolidin-1-yl]methanone]	> 89	–	> 3160
CCNC(=O)CN(CC)C(=O)c1ccc2c(c1)c1c(n2CCO)CCC(C2CCOCC2)C1 (centres unmarked) [N-ethyl-N-(ethylcarbamoylmethyl)-9-(2-hydroxyethyl)-6-(oxan-4-yl)-5,6,7,8-tetrahydrocarbazole-3-carboxamide]	> 83	–	> 3330
CCNC(=O)CN(CC)C(=O)c1ccc2c(c1)c1c(n2CC(=O)N(CC)CC)CCC(C2CCOCC2)C1 (centres unmarked) [9-(diethylcarbamoylmethyl)-N-ethyl-N-(ethylcarbamoylmethyl)-6-(oxan-4-yl)-5,6,7,8-tetrahydrocarbazole-3-carboxamide]	> 87	–	> 10000
CCS(=O)(=O)n1c2c(c3cc(C(=O)N4CC[C@H](O)C4)ccc31)CC(C1CCOCC1)CC2 (stereo partly drawn) [[9-ethylsulfonyl-6-(oxan-4-yl)-5,6,7,8-tetrahydrocarbazol-3-yl]-[(3S)-3-hydroxypyrrolidin-1-yl]methanone]	105	–	4560
CNC(=O)CCCN(C)C(=O)c1ccc2c(c1)c1c(n2C)CCC(C2CCOCC2)C1 (centres unmarked) [N,9-dimethyl-N-[3-(methylcarbamoyl)propyl]-6-(oxan-4-yl)-5,6,7,8-tetrahydrocarbazole-3-carboxamide]	102	–	–
CN(CCCC(=O)Nn1cccc1)C(=O)c1ccc2c(c1)c1c(n2C)CC[C@@H](C2CCOCC2)C1 [(R)—N-(4-(1H-Pyrrol-1-ylamino)-4-oxobutyl)-N,9-dimethyl-3-(tetrahydro-2H-pyran-4-yl)-2,3,4,9-tetrahydro-1H-carbazole-6-carboxamide]	89	–	1050
CCN(CC(=O)NC1CC1)C(=O)c1ccc2c(c1)c1c(n2C)CCC(C2CCOCC2)C1 (centres unmarked) [N-(cyclopropylcarbamoylmethyl)-N-ethyl-9-methyl-6-(oxan-4-yl)-5,6,7,8-tetrahydrocarbazole-3-carboxamide]	124	–	–
CN(C(=O)c1ccc2c(c1)c1c(n2C)CC[C@@H](C2CCOCC2)C1)[C@H](CO)CCC(=O)NC1COC1 [(R)—N-((S)-1-Hydroxy-5-(oxetan-3-ylamino)-5-oxopentan-2-yl)-N,9-dimethyl-3-(tetrahydro-2H-pyran-4-yl)-2,3,4,9-tetrahydro-1H-carbazole-6-carboxamide]	119	–	201
CN(C)NC(=O)CCCN(C)C(=O)c1ccc2c(c1)c1c(n2C)CC[C@@H](C2CCOCC2)C1 [(R)—N-(4-(2,2-Dimethylhydrazinyl)-4-oxobutyl)-N,9-dimethyl-3-(tetrahydro-2H-pyran-4-yl)-2,3,4,9-tetrahydro-1H-carbazole-6-carboxamide]	96	–	917
